Results from patent US6248752A, “Azabicyclooctane compositions and methods for enhancing chemotherapy” (priority 1999, dated 2001).

Target: Pgp (Homo sapiens, UniProt P08183)
Assay: not given
Settings: not given

Chain of Pgp (P08183 whole entry): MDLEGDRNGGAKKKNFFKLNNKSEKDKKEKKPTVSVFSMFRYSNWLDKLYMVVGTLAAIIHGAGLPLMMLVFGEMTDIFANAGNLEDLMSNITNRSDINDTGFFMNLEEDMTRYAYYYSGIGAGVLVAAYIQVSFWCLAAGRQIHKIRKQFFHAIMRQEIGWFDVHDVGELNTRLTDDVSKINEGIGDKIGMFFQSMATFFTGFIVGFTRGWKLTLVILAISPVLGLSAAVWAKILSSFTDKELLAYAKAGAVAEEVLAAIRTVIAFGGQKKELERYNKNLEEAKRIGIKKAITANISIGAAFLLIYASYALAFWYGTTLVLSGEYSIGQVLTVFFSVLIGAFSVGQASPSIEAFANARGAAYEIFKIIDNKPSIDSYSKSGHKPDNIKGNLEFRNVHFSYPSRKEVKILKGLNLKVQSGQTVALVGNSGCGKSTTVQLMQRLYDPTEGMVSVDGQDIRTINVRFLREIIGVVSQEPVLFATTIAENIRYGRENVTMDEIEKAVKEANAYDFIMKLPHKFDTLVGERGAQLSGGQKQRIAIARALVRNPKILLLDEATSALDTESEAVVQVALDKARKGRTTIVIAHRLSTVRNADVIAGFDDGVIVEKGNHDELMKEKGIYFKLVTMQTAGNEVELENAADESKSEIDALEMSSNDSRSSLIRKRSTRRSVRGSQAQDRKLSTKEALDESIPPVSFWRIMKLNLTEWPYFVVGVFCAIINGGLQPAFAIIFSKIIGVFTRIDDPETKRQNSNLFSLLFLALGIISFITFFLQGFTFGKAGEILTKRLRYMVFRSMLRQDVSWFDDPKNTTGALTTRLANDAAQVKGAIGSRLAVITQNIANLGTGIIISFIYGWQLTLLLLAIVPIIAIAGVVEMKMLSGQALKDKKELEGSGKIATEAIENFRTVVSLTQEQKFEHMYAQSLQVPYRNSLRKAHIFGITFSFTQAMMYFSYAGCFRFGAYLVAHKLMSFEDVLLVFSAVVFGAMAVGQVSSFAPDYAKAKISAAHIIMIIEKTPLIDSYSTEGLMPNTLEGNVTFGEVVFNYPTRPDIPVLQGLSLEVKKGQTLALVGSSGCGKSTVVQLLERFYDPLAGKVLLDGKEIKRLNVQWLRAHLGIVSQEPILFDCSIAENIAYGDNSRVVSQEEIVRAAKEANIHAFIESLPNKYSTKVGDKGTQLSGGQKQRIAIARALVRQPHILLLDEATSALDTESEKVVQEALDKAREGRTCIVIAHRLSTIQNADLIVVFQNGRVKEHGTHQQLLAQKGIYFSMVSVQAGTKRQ

Structure (SMILES) | Pgp antagonism
NNC(=O)OC1CC2CCC(C1)N2C(=O)Oc1ccc(Cl)cc1 (stereo not shown) [II-1, 3-hydrazinocarbonyloxy-8-(4-chlorophenoxycarbonyl)-8-azabicyclo[3.2. 1]octane] | 3

Target: T1, MRP (Homo sapiens, UniProt P33527)
T1 construct: Human promyelocytic leukemia HL-60/ADR cells, which express MRP; endogenous in cells; host or cells: HL-60/ADR human promyelocytic leukemia cells
Assay: Reversal of MRP-mediated MDR: potentiation of vincristine cytotoxicity toward HL-60/ADR cells
Assay type: cell-based
Settings: not given

T1 sequence (P33527 whole entry): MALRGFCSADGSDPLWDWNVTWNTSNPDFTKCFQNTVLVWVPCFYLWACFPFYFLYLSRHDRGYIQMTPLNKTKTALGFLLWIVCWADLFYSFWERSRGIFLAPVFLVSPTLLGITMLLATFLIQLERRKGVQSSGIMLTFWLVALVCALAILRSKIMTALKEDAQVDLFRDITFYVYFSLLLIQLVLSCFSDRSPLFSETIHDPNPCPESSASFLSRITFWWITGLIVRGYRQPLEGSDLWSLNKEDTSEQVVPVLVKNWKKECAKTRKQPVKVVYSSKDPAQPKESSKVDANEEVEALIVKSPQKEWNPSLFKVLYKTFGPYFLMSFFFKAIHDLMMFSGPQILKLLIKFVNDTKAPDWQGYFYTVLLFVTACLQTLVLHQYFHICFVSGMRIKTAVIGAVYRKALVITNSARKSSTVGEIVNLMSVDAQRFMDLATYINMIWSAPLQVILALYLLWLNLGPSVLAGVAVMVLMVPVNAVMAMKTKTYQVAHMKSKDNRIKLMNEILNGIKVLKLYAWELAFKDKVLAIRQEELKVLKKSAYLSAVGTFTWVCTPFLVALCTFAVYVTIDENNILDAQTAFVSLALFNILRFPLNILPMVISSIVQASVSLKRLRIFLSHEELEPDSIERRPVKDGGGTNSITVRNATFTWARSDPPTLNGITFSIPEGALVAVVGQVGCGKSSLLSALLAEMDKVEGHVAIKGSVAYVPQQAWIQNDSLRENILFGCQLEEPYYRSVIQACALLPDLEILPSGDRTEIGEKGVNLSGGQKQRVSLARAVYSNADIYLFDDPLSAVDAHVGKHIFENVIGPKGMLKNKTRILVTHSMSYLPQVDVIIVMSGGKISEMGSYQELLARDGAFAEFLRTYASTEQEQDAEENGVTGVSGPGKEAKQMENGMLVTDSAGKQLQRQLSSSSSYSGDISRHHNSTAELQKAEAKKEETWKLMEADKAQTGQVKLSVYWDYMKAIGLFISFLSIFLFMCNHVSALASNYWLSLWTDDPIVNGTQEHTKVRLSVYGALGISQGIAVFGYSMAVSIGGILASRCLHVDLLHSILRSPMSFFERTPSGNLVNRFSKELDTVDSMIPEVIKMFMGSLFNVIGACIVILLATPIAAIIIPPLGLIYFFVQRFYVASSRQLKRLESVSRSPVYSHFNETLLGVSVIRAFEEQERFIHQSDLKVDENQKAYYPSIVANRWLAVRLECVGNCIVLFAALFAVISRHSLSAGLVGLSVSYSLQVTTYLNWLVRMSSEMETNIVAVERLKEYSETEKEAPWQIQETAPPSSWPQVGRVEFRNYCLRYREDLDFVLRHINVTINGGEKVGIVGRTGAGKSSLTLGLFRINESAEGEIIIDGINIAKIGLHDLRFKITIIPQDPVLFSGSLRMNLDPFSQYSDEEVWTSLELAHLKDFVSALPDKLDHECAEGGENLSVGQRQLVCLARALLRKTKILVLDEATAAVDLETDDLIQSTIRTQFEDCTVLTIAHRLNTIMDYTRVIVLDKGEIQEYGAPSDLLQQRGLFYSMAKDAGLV

Structure (SMILES) | MRP antagonism
NNC(=O)OC1CC2CCC(C1)N2C(=O)Oc1ccc(Cl)cc1 (stereo not shown) [II-1, 3-hydrazinocarbonyloxy-8-(4-chlorophenoxycarbonyl)-8-azabicyclo[3.2. 1]octane] | 2

Same assay, conditions: chemosensitizing score on a scale of 0-5 (best activity=5; equal or superior to verapamil = 4, 4.5 or 5); HL-60/ADR cells, 2 nM vincristine, 48 h

Structure (SMILES) | MRP antagonism
COc1cc(C2(O)CC3CCC2N(Cc2ccccc2)C3)cc(OC)c1OC (stereo not drawn) [Compound I-2, 2-benzyl-cis-6-hydroxy-trans-6-(3,4,5-trimethoxyphenyl)-2-azabicyclco[2.2.2]octane] | 3
COc1cc(C2CC3CCC2N(Cc2ccccc2)C3)cc(OC)c1OC (stereo not shown) [Compound I-3, 2-benzyl-6-(3,4,5-trimethoxyphenyl)-2-azabicyclo[2.2.2]octane] | 4
COc1cc(C2CC3CCC2NC3)cc(OC)c1OC (stereo not drawn) [Compound I-4, cis-6-(3,4,5-trimethoxyphenyl)-2-azabicyclo[2.2.2]octane] | 2
COc1cc(C2CC3CCC2NC3)cc(OC)c1OC (stereo not drawn) [Compound I-5, trans-6-(3,4,5-trimethoxyphenyl)-2-azabicyclo[2.2.2]octane] | 4
Oc1ccc(C2(O)CC3CCC2N(Cc2ccccc2)C3)cc1O (stereo not drawn) [Compound I-6, 2-benzyl-cis-6-hydroxy-trans-6-(3,4-dihydroxyphenyl)-2-azabicyclo[2.2. 2]octane] | 1.5
CCN1CC2CCC1C(Nc1ccccc1)C2 (stereo not shown) [Compound I-7, 2-ethyl-6-anilino-2-azabicyclo[2.2.2]octane] | 1
OC1CC2CCC1N(Cc1ccccc1)C2 (stereo not drawn) [Compound I-9, 2-benzyl-6-trans-hydroxy-2-azabicyclo[2.2.2]octane] | 0
OC1(c2ccc(OCc3ccccc3)c(OCc3ccccc3)c2)CC2CCC1N(Cc1ccccc1)C2 (stereo not shown) [Compound I-10, 2-benzyl-6-(3,4-dibenzyloxyphenyl)-6-hydroxy-2-azabicyclo[2.2.2]octane] | 0

Test system: MCF-7 human breast carcinoma cells
Assay: not given
Settings: mcf-7 cells, 48 h

Structure (SMILES) | Cytotoxicity (% killed at 10 μg/ml)
COc1cc(C2CC3CCC2NC3)cc(OC)c1OC (stereo not drawn) [Compound I-4, cis-6-(3,4,5-trimethoxyphenyl)-2-azabicyclo[2.2.2]octane] | 12%
COc1cc(C2CC3CCC2NC3)cc(OC)c1OC (stereo not drawn) [Compound I-5, trans-6-(3,4,5-trimethoxyphenyl)-2-azabicyclo[2.2.2]octane] | 0%

Test system: not listed separately
Assay: Intrinsic cytotoxicity of the compounds toward drug-sensitive MCF-7 cells (sulforhodamine B binding assay)
Settings: human, Cytotoxicity (% killed at 10 μg/ml)

Structure (SMILES) | cytotoxicity at 48 h
COc1cc(C2(O)CC3CCC2N(Cc2ccccc2)C3)cc(OC)c1OC (stereo not drawn) [Compound I-2, 2-benzyl-cis-6-hydroxy-trans-6-(3,4,5-trimethoxyphenyl)-2-azabicyclco[2.2.2]octane] | 39%
COc1cc(C2CC3CCC2N(Cc2ccccc2)C3)cc(OC)c1OC (stereo not shown) [Compound I-3, 2-benzyl-6-(3,4,5-trimethoxyphenyl)-2-azabicyclo[2.2.2]octane] | 22%
Oc1ccc(C2(O)CC3CCC2N(Cc2ccccc2)C3)cc1O (stereo not drawn) [Compound I-6, 2-benzyl-cis-6-hydroxy-trans-6-(3,4-dihydroxyphenyl)-2-azabicyclo[2.2. 2]octane] | 21%
OC1(c2ccc(OCc3ccccc3)c(OCc3ccccc3)c2)CC2CCC1N(Cc1ccccc1)C2 (stereo not shown) [Compound I-10, 2-benzyl-6-(3,4-dibenzyloxyphenyl)-6-hydroxy-2-azabicyclo[2.2.2]octane] | 0%
CN1CC2CCC1C(=O)C2=C(c1ccccc1)c1ccccc1 (stereo not shown) [Compound I-11, 5-diphenylmethylidene-2-methyl-2-azabicyclo[2.2.2]octan-6-one] | 8%

Test system: not listed separately
Assay: in vitro
Settings: human, mcf-7 cells, Cytotoxicity (% killed at 10 μg/ml)

Structure (SMILES) | cytotoxicity at 48 h
CCN1CC2CCC1C(Nc1ccccc1)C2 (stereo not shown) [Compound I-7, 2-ethyl-6-anilino-2-azabicyclo[2.2.2]octane] | 26%
OC1CC2CCC1N(Cc1ccccc1)C2 (stereo not drawn) [Compound I-9, 2-benzyl-6-trans-hydroxy-2-azabicyclo[2.2.2]octane] | 0%
